From PubChem BioAssay (NCI)
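All cell lines were grown in 96-well plates and treated with compound for 48 hours. TGI marks complete inhibition of growth.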

Legend:
Assay in all cases: growth of human tumour cells (NCI), 48 h
MDA-MB-231 breast = tested on: MDA-MB-231 breast
SF-295 CNS = tested on: SF-295 CNS
TK-10 renal = tested on: TK-10 renal
HCT-15 colon = tested on: HCT-15 colon
HOP-92 NSCLC = tested on: HOP-92 NSCLC
OVCAR-5 ovarian = tested on: OVCAR-5 ovarian
UACC-62 melanoma = tested on: UACC-62 melanoma
SK-MEL-28 melanoma = tested on: SK-MEL-28 melanoma
CCRF-CEM leukemia = tested on: CCRF-CEM leukemia
T-47D breast = tested on: T-47D breast
NCI-H460 lung = tested on: NCI-H460 lung
NCI-H23 lung = tested on: NCI-H23 lung
MALME-3M melanoma = tested on: MALME-3M melanoma
DU-145 prostate = tested on: DU-145 prostate
SW-620 colon = tested on: SW-620 colon

| SMILES | TGI (MDA-MB-231 breast) [µM] | TGI (SF-295 CNS) [µM] | TGI (TK-10 renal) [µM] | TGI (HCT-15 colon) [µM] | TGI (HOP-92 NSCLC) [µM] | TGI (OVCAR-5 ovarian) [µM] | TGI (UACC-62 melanoma) [µM] | TGI (SK-MEL-28 melanoma) [µM] | TGI (CCRF-CEM leukemia) [µM] | TGI (T-47D breast) [µM] | TGI (NCI-H460 lung) [µM] | TGI (NCI-H23 lung) [µM] | TGI (MALME-3M melanoma) [µM] | TGI (DU-145 prostate) [µM] | TGI (SW-620 colon) [µM] |
| --- | --- | --- | --- | --- | --- | --- | --- | --- | --- | --- | --- | --- | --- | --- | --- |
| Cc1cc(=O)oc2cc(OCC(O)COC(C)C)ccc12 (stereo not given) | > 100 | > 100 | > 100 | > 100 | > 100 | > 100 | > 100 | > 100 | > 100 | > 100 | > 100 | > 100 | > 100 | > 100 | > 100 |
| COc1ccccc1/C=C/C1=NN(c2cccc(S(=O)(=O)O)c2)C2(C1)C(Cl)C(=O)N2c1nc2ccccc2s1 (stereo not given) | > 100 | > 100 | > 100 | > 100 | > 95 | > 100 | > 100 | > 100 | 33.1 | 44 | > 100 | > 100 | > 100 | > 100 | > 100 |
| CCN(CC)CCN(C)c1ccc(CO)c2c1C(=O)c1ccccc1S2=O (stereo not given) | 7.7 | 28 | 32.3 | 12.9 | 30.5 | 24.5 | 17.6 | 10.2 | 9.96 | 28.2 | 27.8 | 8.29 | 27.2 | 28.3 | 3.63 |
| Cc1ccc2nc(C(C)C)c(=O)[nH]c2c1 | > 100 | > 100 | > 100 | > 100 | > 100 | > 100 | > 100 | > 100 | > 100 | > 100 | > 100 | > 100 | > 100 | > 100 | > 100 |
| COC(=O)/C=C1/OC(c2ccccc2)=C(C)C1=O | 15.7 | 26.1 | 29.1 | 17 | 26.2 | 30.6 | 11.5 | 31.1 | > 100 | 42.7 | 39.2 | 43.6 | 26.7 | 33.6 | 5.58 |
| CN(C)c1c(C2OC(CO)C(O)C2O)c(=O)c1=O (stereo not given) | > 100 | > 55.4 | > 100 | > 100 | > 100 | > 100 | > 100 | > 100 | > 100 | > 100 | > 100 | > 100 | > 100 | > 100 | > 100 |
| CCOC(=O)/C=C(/C(=O)OCC)n1ccc(=O)n(Cc2cnnn2COCCOC(C)=O)c1=O | 38.7 | > 100 | 22.2 | 31 | 6.81 | 35.9 | 32.8 | 32.2 | 3.57 | 29.2 | > 65 | 33.3 | 26.3 | 42.9 | 14.2 |
| COc1ccc(N=NC(=O)NC(CC(C)C)C(=O)NCC(=O)O)cc1 (stereo not given) | > 100 | > 100 | > 100 | > 100 | > 100 | > 100 | > 100 | > 100 | > 100 | > 84 | > 58.7 | > 100 | > 100 | > 100 | > 100 |
| O=[S@]1c2ccc3ccccc3c2N[C@@H]2[C@H]1[C@H]1C=C[C@@H]2C1 | > 100 | > 100 | > 100 | > 100 | > 100 | > 100 | > 100 | > 100 | 68.4 | > 100 | > 100 | > 100 | > 100 | > 100 | > 100 |
| CC(C)=CCC[C@@H](C)C1=C(O)C(Nc2ccccc2Cl)=C(C)C(=O)C1=O | > 70.8 | 34.2 | > 75 | > 75 | > 67.8 | > 75 | 36 | > 75 | > 21.3 | 62.7 | > 75 | 55.1 | 29.3 | > 75 | > 75 |
| CCOC(=O)c1nc2cc(C(F)(F)F)ccc2nc1Nc1ccc(C(=O)OC)s1 | 94.6 | > 100 | > 100 | > 100 | 54 | > 100 | 66.8 | > 100 | > 100 | > 100 | > 100 | > 100 | > 100 | > 100 | > 100 |
